From patent US20070244199A1 (priority 2006, published 2007)
In brackets after ≈: the same amount, converted by molar mass. Entries after “also recorded” stand apart in the source; their conditions may differ.

Columns and labels:
M. tuberculosis (H37Rv) = experiment: BACTEC radiometric MIC determination against M. tuberculosis; type: cell-based; conditions: Mycobacterium tuberculosis, read-out: MIC against M.tb
[1] = Pro-drug decomposition at acid and physiologic pH; type: physicochemical
Description: At physiologic pH (or about 7.5), the molecule slowly breaks down (with a half-time of about 15 hours) to release DSA. This property would enhance the prolonged maintenance of plasma concentrations of the active drug. The MICs of these pro-drug molecules are 6.25 μg/ml (for the 10 carbon compound) and 12.5 μg/ml (for the 8 carbon compound).

[2] = tested on: latent (hypoxic) mycobacteria; experiment: Killing of latent (hypoxic) mycobacteria in vitro; type: cell-based
M. bovis BCG = experiment: microbe, parasite or virus in culture; type: cell-based, Mycobacterium bovis BCG; conditions: for MIC: Mycobacterium tuberculosis variant bovis BCG, BCG, read-out: minimum inhibitory concentration (MIC)
[3] = tested on: M. avium subspecies paratuberculosis (PTB); experiment: BACTEC inhibition of PTB (paratuberculosis); type: cell-based, Mycobacterium avium subspecies paratuberculosis; conditions: for activity against PTB (BACTEC growth index over time): single agents at the highest concentration
From the text: The MIC was defined as the lowest inhibitor concentration that yielded a growth index change less than that of the 1:100 control bottle. A modification of this protocol was used for MIC determinations of MAC and M. avium subspecies paratuberculosis (Parrish, 2004). Susceptibilities and MIC determinations of M. tuberculosis isolates to isoniazid, streptomycin, ethambutol, rifampin, and pyrazinamide were done using standard BACTEC methods (Siddiqi, 1992). All primary drugs were purchased from Becton Dickinson (Sparks, Md.).
The inhibition assay was performed essentially as described in Example 1 for TB and BCG. Briefly, PTB inoculum was standardized by use of “seed vials” of a suspension of microorganisms in supplemented media. The suspension was vortexed with glass beads and then 0.3 ml to 0.5 ml was introduced into individual supplemented BACTEC 12B vials. Vials were subsequently incubated at 37° C. and the GI recorded until reaching 999. At that time, 0.3 ml of the “seed vial” was introduced into test and compound containing vials. Vials were then read at 24-hour intervals and the rest of the procedure followed as for TB and BCG. The MIC determination was the same as for TB and BCG.

mycobacteria = experiment: In vitro sterilizing model; type: cell-based
[4] = agent alone at 1.5 μg/ml (FIG. 1, FIG. 2)
[5] = agent alone, DSA at 1/2, 1/4, or 1/8 of the MIC, NSA or OSA at the same concentrations as DSA (FIG. 1)
[6] = PTB strain #2, combination at 12.5 or 25.0 μg/ml each (FIG. 5)
[7] = PTB strain #4, combination at 12.5 or 25.0 μg/ml each (FIG. 6)
[8] = PTB strain #8, combination at 12.5 or 25.0 μg/ml each (FIG. 7)
[9] = PTB strain #15, combination at 12.5 or 25.0 μg/ml each (FIG. 9)
[10] = PTB strain #13, combination at 12.5 or 25.0 μg/ml each (FIG. 8)

CCCCCCCCCCS(=O)(=O)CC(=O)NCN1CCOCC1 [10 carbon compound]
MIC (M. tuberculosis (H37Rv)): 6.25 µg/mL (≈ 17.2 µM)
decomposition in acid pH ([1]; acid pH): resists decomposition
half-time of breakdown to release DSA ([1]; physiologic pH (or about 7.5)): about 15 hours

CCCCCCCCCCS(=O)(=O)CC(N)=O [DSA, n-decanesulphonylacetamide]
MIC (M. tuberculosis (H37Rv)): ~1 µg/mL (≈ 3.8 µM)
killing of latent (hypoxic) mycobacteria in vitro [2]: kill latent (hypoxic) mycobacteria
MIC (M. bovis BCG): 1.5 µg/mL (≈ 5.69 µM)
inhibition of growth of M. bovis BCG cells (M. bovis BCG; [4]): some activity; also recorded: inhibit the growth
inhibition of growth of M. bovis BCG cells (M. bovis BCG; [5]): no effect
MIC ([3]; Mycobacterium avium, agent alone (FIGS. 4-9), read-out: MIC, various strains of PTB): ≥ 25 µg/mL
activity against PTB (BACTEC growth index over time) [3, 6]: some activity
activity against PTB (BACTEC growth index over time) [3, 7]: some activity
activity against PTB (BACTEC growth index over time) [3, 8]: some activity
activity against PTB (BACTEC growth index over time) [3, 9]: some activity
activity in an in vitro sterilizing model (mycobacteria): active

CCCCCCCCCS(=O)(=O)CC(N)=O [NSA, n-nonanesulphonylacetamide]
MIC (M. bovis BCG): 3 µg/mL (≈ 12 µM)
inhibition of growth of M. bovis BCG cells (M. bovis BCG; [4]): ineffective
inhibition of growth of M. bovis BCG cells (M. bovis BCG; [5]): no effect
activity against PTB (BACTEC growth index over time) [3, 6]: some activity
activity against PTB (BACTEC growth index over time) [3, 7]: some activity
activity against PTB (BACTEC growth index over time) [3, 8]: some activity
activity against PTB (BACTEC growth index over time) [3, 10]: some activity
activity against PTB (BACTEC growth index over time) [3, 9]: some activity
MIC, various strains of PTB ([3]; agent alone (FIGS. 4-9)): considerably higher

CCCCCCCCS(=O)(=O)CC(N)=O [OSA, n-octanesulphonylacetamide]
MIC (M. bovis BCG): 6.25 µg/mL (≈ 26.6 µM)
inhibition of growth of M. bovis BCG cells (M. bovis BCG; [4]): ineffective
inhibition of growth of M. bovis BCG cells (M. bovis BCG; [5]): no effect
activity against PTB (BACTEC growth index over time) [3, 6]: no activity
activity against PTB (BACTEC growth index over time) [3, 7]: no activity
activity against PTB (BACTEC growth index over time) [3, 8]: no activity
activity against PTB (BACTEC growth index over time) [3, 10]: no activity
activity against PTB (BACTEC growth index over time) [3, 9]: no activity
MIC, various strains of PTB ([3]; agent alone (FIGS. 4-9)): considerably higher
